{"source": "patent US10052415B2", "about": "“Tropoelastin for promoting endothelial cell adhesion or migration” (University of Utah Research Foundation, priority 2005, dated 2018)", "format_in_all_cases": "cell-based", "key": {"[1]": {"tested_on": "human aortic smooth muscle cells (HuAoSMC)", "assay": "Cell adhesion assay on coated culture plates, HuAoSMC", "details": "culture plates coated with 10 ug/ml protein; 0.1% BSA control", "procedure": "(§1) Cells were plated on culture plates coated with either 0.1% BSA (as a control), 10 ug/ml fibronectin (FN), or 10 ug/ml recombinant tropoelastin, and assayed for adherence to the coated substrate.\n(§2) 96-well plates were coated in duplicate overnight at 4° C. with 10 μg/ml collagen, fibronectin, tropoelastin, or 0.1% bovine serum albumin (BSA). Cells were harvested with 0.25% trypsin/1 mM EDTA, washed three times in adhesion buffer (0.5% BSA in basal medium), suspended at a working density of 5×10^5/ml in adhesion buffer, and then allowed to recover for 1 h at 37° C. (5% CO2). For integrin-blocking assays, 25 μg/ml anti-integrin antibodies (Chemicon, Temecula, Calif.) or control IgG (Jackson ImmunoResearch Laboratories, Inc, West Grove, Pa.) were added to the cell suspension during the recovery period. During the cell recovery, the coated 96-well plates were washed twice in dPBS and blocked for 1 h at 25° C. in 5.0% BSA (dPBS). The blocking solution was removed, and the wells were washed twice in dPBS. Recovered cells were added to the coated wells in a volume of 100 μl per well and placed at 37° C. for 30 minutes (5% CO2). […] Readings represent the number of adherent cells/well (average six high powered 100× fields, three taken from each of two separate wells)."}, "[2]": {"tested_on": "A2058 human melanoma cells", "assay": "Cell adhesion assay, A2058 cells", "details": "for adhesion of A2058 cells in comparison to BSA: FIG. 4, coated substrates, peptide 10 μM", "procedure": "A2058 cells were assayed for adherence to substrates coated with BSA (control), fibronectin, tropoelastin, or a bioactive fragment of tropoelastin corresponding to a single repeat of the hexameric sequence VGVAPG (SEQ ID No. 5). In comparison to adherence to BSA, A2058 cells adhered to substrates coated with fibronectin tropoelastin, or a bioactive fragment of tropoelastin.\n(§3) Cells were harvested with 0.25% trypsin/1 mM EDTA, washed three times in adhesion buffer (0.5% BSA in basal medium), suspended at a working density of 5×10^5/ml in adhesion buffer, and then allowed to recover for 1 h at 37° C. (5% CO2). For integrin-blocking assays, 25 μg/ml anti-integrin antibodies (Chemicon, Temecula, Calif.) or control IgG (Jackson ImmunoResearch Laboratories, Inc, West Grove, Pa.) were added to the cell suspension during the recovery period. During the cell recovery, the coated 96-well plates were washed twice in dPBS and blocked for 1 h at 25° C. in 5.0% BSA (dPBS). The blocking solution was removed, and the wells were washed twice in dPBS. Recovered cells were added to the coated wells in a volume of 100 μl per well and placed at 37° C. for 30 minutes (5% CO2). Following this incubation, the assay plate was inverted and assay wells were washed twice with 100 μl dPBS to remove non-specifically adhered cells. The wells were then fixed in Zamboni fixative, stained with Gill 1 hematoxylin, and overlayed with 80% glycerol. The assay was imaged at 100× magnification, capturing 3 random fields/well on a Zeiss Axiovert 200 inverted microscope equipped with a Zeiss Axiocam digital camera. Readings represent the number of adherent cells/well (average six high powered 100× fields, three taken from each of two separate wells)."}, "[3]": {"tested_on": "human embryonic kidney cells (HEK 293)", "assay": "Cell adhesion assay on coated culture plates, HEK 293 cells", "details": "culture plates coated with 10 ug/ml protein; 0.1% BSA control", "procedure": "as §1, §2"}, "CHO cells": {"tested_on": "CHO cells", "assay": "Cell adhesion assay on coated culture plates, CHO cells", "details": "culture plates coated with 10 ug/ml protein; 0.1% BSA control", "procedure": "as §1, §2"}, "[4]": {"tested_on": "human aortic endothelial cells (HuAEC)", "assay": "Cell adhesion assay on coated culture plates, HuAEC", "details": "culture plates coated with 10 ug/ml protein; 0.1% BSA control", "procedure": "as §1\nas §3, with “96-well plates were coated in duplicate overnight at 4° C. with 10 μg/ml collagen, fibronectin, tropoelastin, or 0.1% bovine serum albumin (BSA). Cells” for “Cells”"}, "[5]": {"tested_on": "A2058 human melanoma cells", "assay": "Boyden chamber migration assay, A2058 cells", "details": "FIG. 5", "procedure": "Briefly, 16 h before the assay, 70% confluent 75 cm^2 flasks of human melanoma A2058 cell (ATCC, passage 3-12) or human aortic endothelial cells (HAEC; Cambrex, passage 4-7) were kept in basal media (dMEM+0.1% BSA, or EBM-2+1% FCS, respectively). Cells were lifted with 0.25% Trypsin/1 mM EDTA, diluted in 0.5% BSA (dMEM) and washed 3 times in basal media (dMEM+0.1% BSA) or (EBM-2+0.1% FCS,) and recovered in suspension at working density (2×10^6/ml for A2058 or 1.5×10^6 HAEC) for 1 h at 37° C. (5% CO2). For migration-inhibition assays, the cells were preincubated during the recovery period for 30 minutes in 25 μg/ml anti-integrin antibodies (Chemicon, Temecula, Calif.) or control IgG (Jackson ImmunoResearch, Inc.). All migration assays were performed in triplicate in a 48-well Boyden chamber apparatus (NeuroProbe, Cabin John, Md.). The recovered cells were added to the bottom chambers in a volume of 30 μl. The wells were overlayed with an 8 μm-pore polycarbonate membrane (NeuroProbe, Cabin John, Md.) and coated with 100 μg/ml Rat tail collagen (Trevigen, Gaithersburg, Md.) for A2058 cells or acetylated 1% gelatin from porcine skin (Sigma, St. Louis, Mo.) for HAEC. The apparatus was assembled and stored inverted at 37° C. (5 CO2) for a 2 h adhesion-period. […] Readings represent the number of cells migrating through the membrane (the sum of two high power X 20 fields/well, averaged for each sextuplicate-well set)."}, "[6]": {"tested_on": "human aortic endothelial cells (HuAEC)", "assay": "Boyden chamber migration assay, HuAEC", "details": "FIG. 3; for migration of HuAECs: 200 ng/ml Tropoelastin, 10 μM peptides, BSA control", "procedure": "Migration of HuAECs to BSA, fibronectin, and recombinant tropoelastin was measured.\nWe assayed the hexamer VGVAPG (SEQ ID No. 5). This hexameric sequence is repeated multiple times within the full length tropoelastin protein. […] We additionally assayed a 17 residue C-terminal fragment of the tropoelastin protein. This 17 amino acid residue is depicted in SEQ ID NO: 6 (IFPGGACLGKACGRKRK).\nBriefly, 16 h before the assay, 70% confluent 75 cm^2 flasks of human melanoma A2058 cell (ATCC, passage 3-12) or human aortic endothelial cells (HAEC; Cambrex, passage 4-7) were kept in basal media (dMEM+0.1% BSA, or EBM-2+1% FCS, respectively). Cells were lifted with 0.25% Trypsin/1 mM EDTA, diluted in 0.5% BSA (dMEM) and washed 3 times in basal media (dMEM+0.1% BSA) or (EBM-2+0.1% FCS,) and recovered in suspension at working density (2×10^6/ml for A2058 or 1.5×10^6 HAEC) for 1 h at 37° C. (5% CO2). For migration-inhibition assays, the cells were preincubated during the recovery period for 30 minutes in 25 μg/ml anti-integrin antibodies (Chemicon, Temecula, Calif.) or control IgG (Jackson ImmunoResearch, Inc.). All migration assays were performed in triplicate in a 48-well Boyden chamber apparatus (NeuroProbe, Cabin John, Md.). The recovered cells were added to the bottom chambers in a volume of 30 μl. The wells were overlayed with an 8 μm-pore polycarbonate membrane (NeuroProbe, Cabin John, Md.) and coated with 100 μg/ml Rat tail collagen (Trevigen, Gaithersburg, Md.) for A2058 cells or acetylated 1% gelatin from porcine skin (Sigma, St. Louis, Mo.) for HAEC. The apparatus was assembled and stored inverted at 37° C. (5 CO2) for a 2 h adhesion-period. The apparatus was re-inverted and 52 μl of the chemoattractants, 10 mg/ml Fibronectin, 200 ng/ml Tropoelastin, 10 μM elastin-derived peptides; VGVAPG (SEQ ID No. 5), and IFPGGACLGKACGRKRK (SEQ ID No. 6 (Cterm peptide) or 0.1% BSA/dMEM (diluent, random migration control), were added to the upper chambers and the migration was allowed to proceed for 2 h in a humidified incubator at 37° C. (5% CO2). The membranes were then removed, fixed in methanol, stained with a Hema 3 stain set (Fisher Scientific, Pittsburgh, Pa.) and mounted migrated-side down to a 50×75 mm glass slide. Before 90% mounting medium (in xylenes) was applied, the non-migrated cells were removed from the exposed, non-migrated face of the membrane with a moistened swab. Readings represent the number of cells migrating through the membrane (the sum of two high power X 20 fields/well, averaged for each sextuplicate-well set)."}}, "note": "Ends that are not written are not given here.", "data": [{"substance": "fibronectin [reference compound]", "values": [{"measurement": "adhesion of HuAoSMC to the coated substrate", "setting": "[1]", "value": "adhered to fibronectin"}, {"measurement": "adhesion of A2058 cells in comparison to BSA", "setting": "[2]", "value": "adhered"}, {"measurement": "adhesion of HEK 293 cells to the coated substrate", "setting": "[3]", "value": "adhered to fibronectin"}, {"measurement": "adhesion of CHO cells to the coated substrate", "setting": "CHO cells", "value": "adhered to fibronectin"}, {"measurement": "adhesion of HuAEC to the coated substrate", "setting": "[4]", "value": "adhered to fibronectin"}]}, {"substance": "IFPGGACLGKACGRKRK (chemically synthesized bioactive fragment of tropoelastin) [C-terminal fragment]", "values": [{"measurement": "level of A2058 migration compared among tropoelastin and fragments", "setting": "[5]", "value": "promoted migration of A2058 cell at comparable levels"}, {"measurement": "level of HuAEC migration relative to comparator", "setting": "[6]", "value": "at least as well as, and possibly better than, the fall length tropoelastin protein"}, {"measurement": "migration of HuAECs", "setting": "[6]", "value": "promoted migration of endothelial cells"}]}, {"substance": "VGVAPG", "values": [{"measurement": "level of A2058 adhesion relative to full length tropoelastin", "setting": "[2]; 10 μM of a single repeat of the hexameric sequence", "value": "at a level similar to 10 μg/ml of full length tropoelastin"}, {"measurement": "adhesion of A2058 cells in comparison to BSA", "setting": "[2]", "value": "promoted adhesion of A2058 cells"}, {"measurement": "level of A2058 migration compared among tropoelastin and fragments", "setting": "[5]", "value": "promoted migration of A2058 cell at comparable levels"}, {"measurement": "level of HuAEC migration relative to comparator", "setting": "[6]", "value": "at least as well as, and possibly better than, the fall length tropoelastin protein"}, {"measurement": "migration of HuAECs", "setting": "[6]", "value": "promoted migration of endothelial cells"}]}]}
